Values quoted from earlier work, collected in PMC11320581 (ACS Infectious Diseases, 2024).

Tested on: M. tuberculosis gyrase with single-resistance mutations at GyrA Ala90 and Asp94
Conditions: cited from earlier work

## C[C@@H]1CN2c3c(cc4c(N5C(=O)OC[C@@H]5C)noc4c3F)CC3(C(=O)NC(=O)NC3=O)[C@H]2[C@H](C)O1 [zoliflodacin, Zoliflodacin]
  maximal double-stranded DNA scission with fluoroquinolone-resistant gyrases, fold higher than wild-type: 2- to 5 fold
